Results taken from patent US20240207258A1, “HETEROCYCLIC PDK1 INHIBITORS FOR USE TO TREAT CANCER” (Viracta Therapeutics, Inc., priority 2015, published 2024).

Assays:
[1] = system: hematologic tumor cell lines; assay: MTS cell proliferation assay, panel of hematologic cancer cell lines; format: cell-based; settings: range over 16 cell lines, FIG. 3; read-out: potency in the cell proliferation assay (EC50)
Description: (§1) Cell proliferation was measured using the CellTiter 96 Aqueous Non-Radioactive Cell Proliferation Assay (Promega). The CellTiter 96® AQueous Assay is composed of solutions of a tetrazolium compound [3-(4,5-dimethylthiazol-2-yl)-5-(3-carboxymethoxyphenyl)-2-(4-sulfophenyl)-2H-tetrazolium, inner salt; MTS] and an electron coupling reagent (phenazine methosulfate) PMS. MTS is bioreduced by cells into a formazan product that is soluble in tissue culture medium. The absorbance of the formazan product at 490 nm can be measured directly from assay plates without additional processing. The quantity of formazan product as measured by the amount of 490 nm absorbance is directly proportional to the number of living cells in culture. Cells were seeded into 96-well or 384-well clear plates in a volume of 200 μL (96-well) or 50 μL (384-well) at optimized densities ranging from 1,000 to 40,000 cells per well for 96-well plates or 1,200 to 25,000 cells per well for 384-well plates depending on cell-line. After 4-6 hr recovery, serially diluted compounds in DMSO were added to the cells using (0.1% v/v final DMSO concentration). Cells were then grown at 37° C. in a humidified incubator with 5% CO2 for 72 hr. A 20:1 [3-(4,5-dimethylthiazol-2-yl)-5-(3-carboxymethoxyphenyl)-2-(4-sulfophenyl)-2H-tetrazolium](MTS):phenazine methosulfate (PMS) solution in DPBS was made immediately before use, added to each well, and cells were incubated for 1.5 hr at 37° C. The absorbance at 490 nm was then measured using a platereader. Absorbance values were normalized as percent of control (cells incubated in the presence of 0.1% v/v DMSO). Sigmoidal dose-response curves were plotted using log(inhibitor) vs. response—Variable slope (four parameters) model with a top value constrained to 100% (GraphPad Prism version 6.00 for Windows, GraphPad Software, La Jolla California USA). […] Curves for compounds that reached a plateau were matched exactly to the measurement points. […] To determine potential of compounds of the invention to affect viability of hematological cancers, cell lines representing various tumor types were selected and tested. Human cell lines tested were: MOLM-13 (acute myeloid leukemia (AML)), MV4-11 (AML), U-2932 (ABC-diffuse large B cell lymphoma), U-937 (histiocytic lymphoma), U-266 (multiple myeloma), RPMI-8226 (multiple myeloma), CMK (megakaryoblastic cell line), SU-DHL-4 (GCB-diffuse large B cell lymphoma), KG1 (AML), Mec-1 (chronic B-cell leukemia), MOLM-16 (AML), Jeko (B-cell lymphoma), WSU-DLCL2 (B-cell lymphoma), JJN3 (plasma cell leukemia), SU-DHL-6 (GCB-diffuse large B cell lymphoma), and Z-138 (mantle cell lymphoma). In addition, two murine cell lines were tested: A20 […].

[2] = Compound concentration in MV4-11 tumors by LC-MS/MS; format: in vivo, mice; settings: 50 mg/kg oral
Description: (§2) MV4-11 cells propagated in vitro were implanted subcutaneous into the right flank of 9-week old female NCr nu/nu mice. On the day of implant, MV4-11 cells were harvested during log phase growth and resuspended in phosphate buffered saline (PBS) containing 50% Matrigel™ (BD Biosciences) at a concentration of 1×10^8 cells/mL. Xenografts were initiated by subcutaneously implanting 1×10^7 MV-4-11 cells (0.1 mL suspension) into the right flank of each test animal and tumors were monitored as their volumes approached the target range of 175 to 225 mm^3. Two weeks after implantation, animals were assigned to individual groups of 3 animals with and average tumor volume of approximately 200 mm^3. […] Eight hours post-dose, full blood volume was collected by cardiac puncture under isoflurane anesthesia and tumors were excised and snapfrozen in liquid nitrogen and stored at −80° C. until further analysis. Tumors were pulverized in liquid nitrogen using a Biopulverizer and split into two sample tubes: one for Western blot analysis and one for analysis of compound levels by LC-MS/MS. Western blot analysis was performed as described above. […] Standards and samples were analyzed on a PE Sciex API4000 instrument and compound concentration was quantified and back-calculated to ng compound per g tumor tissue and converted to M concentration assuming 1 g tumor tissue equals 1 mL volume.

[3] = system: P-PDK1; assay: Pathway modulation in MV4-11 tumor xenografts, pPDK1; format: in vivo, mice; settings: MV4-11 tumors, 50 mg/kg oral, 8 hrs
Description: MV4-11 cells propagated in vitro were implanted subcutaneous into the right flank of 9-week old female NCr nu/nu mice. On the day of implant, MV4-11 cells were harvested during log phase growth and resuspended in phosphate buffered saline (PBS) containing 50% Matrigel™ (BD Biosciences) at a concentration of 1×10^8 cells/mL. […] Two weeks after implantation, animals were assigned to individual groups of 3 animals with and average tumor volume of approximately 200 mm^3. […] Eight hours post-dose, full blood volume was collected by cardiac puncture under isoflurane anesthesia and tumors were excised and snapfrozen in liquid nitrogen and stored at −80° C. until further analysis. Tumors were pulverized in liquid nitrogen using a Biopulverizer and split into two sample tubes: one for Western blot analysis and one for analysis of compound levels by LC-MS/MS. […] For MS analysis, tumor samples were homogenized with a Virsonic 100 ultrasonic homogenizer. Each sample was first weighed, and then an appropriate volume of 20:80 methanol:water was added to make a 9 mL/gram sample. Samples were then homogenized on ice, and stored frozen until analysis. Standards were prepared in BALB/c mouse plasma or blank homogenized tumor tissue. Standards and samples were analyzed on a PE Sciex API4000 instrument and compound concentration was quantified and back-calculated to ng compound per g tumor tissue and converted to M concentration assuming 1 g tumor tissue equals 1 mL volume.

[4] = system: AKT phosphorylation; assay: Pathway modulation in MV4-11 tumor xenografts, pAKT; format: in vivo, mice; settings: MV4-11 tumors, 50 mg/kg oral, 8 hrs
Description: as §2

[5] = system: Molm-13; assay: MTS cell proliferation assay, Molm-13; format: cell-based; settings: Homo sapiens; Molm-13, 72 hr
Description: as §1

[6] = system: Jeko; assay: MTS cell proliferation assay, Jeko; format: cell-based; settings: Homo sapiens, 72 hr
Description: as §1

[7] = system: RPMI-8226; assay: MTS cell proliferation assay, RPMI-8226; format: cell-based; settings: Homo sapiens; RPMI-8226, 72 hr
Description: as §1

[8] = system: MV4-11; assay: MTS cell proliferation assay, MV4-11; format: cell-based, human
Description: (§3) Cell proliferation was measured using the CellTiter 96 Aqueous Non-Radioactive Cell Proliferation Assay (Promega). […] MTS is bioreduced by cells into a formazan product that is soluble in tissue culture medium. The absorbance of the formazan product at 490 nm can be measured directly from assay plates without additional processing. The quantity of formazan product as measured by the amount of 490 nm absorbance is directly proportional to the number of living cells in culture. Cells were seeded into 96-well or 384-well clear plates in a volume of 200 μL (96-well) or 50 μL (384-well) at optimized densities ranging from 1,000 to 40,000 cells per well for 96-well plates or 1,200 to 25,000 cells per well for 384-well plates depending on cell-line. After 4-6 hr recovery, serially diluted compounds in DMSO were added to the cells using (0.1% v/v final DMSO concentration). Cells were then grown at 37° C. in a humidified incubator with 5% CO2 for 72 hr. A 20:1 [3-(4,5-dimethylthiazol-2-yl)-5-(3-carboxymethoxyphenyl)-2-(4-sulfophenyl)-2H-tetrazolium](MTS):phenazine methosulfate (PMS) solution in DPBS was made immediately before use, added to each well, and cells were incubated for 1.5 hr at 37° C. The absorbance at 490 nm was then measured using a platereader. Absorbance values were normalized as percent of control (cells incubated in the presence of 0.1% v/v DMSO). Sigmoidal dose-response curves were plotted using log(inhibitor) vs. response—Variable slope (four parameters) model with a top value constrained to 100% (GraphPad Prism version 6.00 for Windows, GraphPad Software, La Jolla California USA). […] To determine potential of compounds of the invention to affect viability of hematological cancers, cell lines representing various tumor types were selected and tested. […] In addition, two murine cell lines were tested: A20 […].

[9] = system: P-AKT; assay: Western blot, AKT phosphorylation in A20 cells; format: cell-based, murine
Description: (§4) For phosphoprotein analyses, cells were seeded into 10 cm petri dishes (10×10^6 cells/dish) in media supplemented with 10% FBS and penicillin/streptomycin. After cells recovered for 1 hr at 37° C., compounds were added in DMSO (0.1% final) and incubated for 4 or 24 hr at 37° C. Cells were then harvested by centrifugation and washed with cold PBS. Cell pellets were resuspended in cell extraction buffer (Invitrogen) supplemented with 2×Halt™ protease and phosphatase inhibitor cocktail (Thermo Scientific), 2 mM sodium orthovanadate, 10 mM EDTA and 4 mM PMSF. Samples were lysed by sonication and incubated on ice for 30 min. Cell debris was removed by centrifugation and protein concentrations were determined using the BCA Protein Assay Kit (Pierce). The clarified lysate was diluted in LDS sample buffer with reducing agent (Life Technologies). […] Gels were run at 110 V and proteins were transferred to a PVDF membrane. Membranes were blocked in TBS blocking buffer (Li-Cor Biosciences) for 1 hr. Primary antibodies (Cell Signaling, Sant Cruz Biotechnology) were added (1:1,000 dilution) in blocking buffer with 0.1% Tween-20 and 1:20,000 dilution of β-actin antibody and incubated for 14 hr at 4° C. Blots were washed in TBS-T. Label-conjugated goat anti-rabbit secondary antibody (IRdye® 800CW; Li-Cor Biosciences) was added in blocking buffer with 0.1% Tween-20 and 0.02% SDS and incubated for 1 hr. After washing in TBS-T followed by TBS, membranes were scanned on an Odyssey imaging system (Li-Cor Biosciences). Bands were quantitated using ImageJ.

[10] = system: U-2932; assay: MTS cell proliferation assay, U-2932; format: cell-based; settings: Homo sapiens, U2932; U-2932, 72 hr
Description: as §1

[11] = system: A20; assay: MTS cell proliferation assay, A20; format: cell-based, murine; settings: Mus musculus; A20, 72 hr
Description: as §1

[12] = system: P-PDK1; assay: Western blot, PDK1 phosphorylation in C1498 cells; format: cell-based, murine; settings: C1498
Description: as §4, with “Blots were washed in TBS-T. Label-conjugated goat anti-rabbit secondary antibody (IRdye® 800CW; Li-Cor Biosciences) was added in blocking buffer with 0.1% Tween-20 and 0.02% SDS and incubated for 1 hr. After washing in TBS-T followed by TBS, membranes were scanned on an Odyssey imaging system (Li-Cor Biosciences).” left out

[13] = system: C1498; assay: MTS cell proliferation assay, C1498; format: cell-based, murine
Description: as §3

[14] = system: P-RSK2; assay: Western blot, RSK2 phosphorylation in C1498 cells; format: cell-based, murine; settings: C1498
Description: as §4, with “Blots were washed in TBS-T. Label-conjugated goat anti-rabbit secondary antibody (IRdye® 800CW; Li-Cor Biosciences) was added in blocking buffer with 0.1% Tween-20 and 0.02% SDS and incubated for 1 hr. After washing in TBS-T followed by TBS, membranes were scanned on an Odyssey imaging system (Li-Cor Biosciences).” left out

| Compound | EC50 [1] [nM] | tumor exposure [2] [mM] | inhibition of P-PDK1 [3] [%] | inhibition of PDK1 in tumors [3] [%] | inhibition of P-AKT in tumors [4] | EC50 [5] [nM] | EC50 [6] [nM] | EC50 [7] [nM] | EC50 ([8]; Homo sapiens, MV4-11, 72 hr, read-out: MTS proliferation assay) [nM] | plateau of growth inhibition curve ([8]; MV4-11) | P-AKT levels [9] | EC50 [10] [nM] | EC50 [11] [nM] | effect on PDK1 phosphorylation [12] | plateau of growth inhibition curve ([13]; C1498) | EC50 ([13]; Mus musculus, C1498, 72 hr, read-out: MTS proliferation assay) [nM] | effect on RSK2 phosphorylation [14] |
| --- | --- | --- | --- | --- | --- | --- | --- | --- | --- | --- | --- | --- | --- | --- | --- | --- | --- |
| CS(=O)(=O)N1CCN(Cc2cc3nc(-c4cccc5[nH]ncc45)nc(N4CCOCC4)c3s2)CC1 [GDC-0941, pictilisib] | 50 to 6100 | 0.4 to 1.4 | 25 | 45 | no inhibition | – | – | – | – | – | – | – | – | – | – | – | – |
| NC1(c2ccc(-c3nc4ccn5c(=O)[nH]nc5c4cc3-c3ccccc3)cc2)CCC1 [MK-2206, reference compound] | 100 to 10700 | – | – | – | – | 1370 | 980 | 906 | 1300 | do not reach a plateau below 20% | sensitive | 4880 | 138 | appears to enhance | do not reach a plateau below 20% | 812 | appears to enhance |
